Measured values reported in PubChem BioAssay AID1963450 (Molecular Pharmacology Branch, DTP, NCI, 2024).

Test system: 556581-035-R-J1-PDC complex spheroid growth
Assay: Anticancer human tumor 556581-035-R-J1-PDC patient-derived ovarian carcinoma cell line growth inhibition [Asc]
Settings: for IC50: curve of first compound; for viability, T/C: stronger effect = lower value
Protocol: Multicellular complex tumor spheroid response to apoptosis pathway targeting inhibitors Alrizomadlin, Pelcitoclax, and Dasminapant in combination with a variety of drugs and investigational agents in selected tumor cell lines
The MDM2 inhibitor alrizomadlin, the Bcl-2/Bcl-xL inhibitor pelcitoclax, and the IAPs inhibitor dasminapant were evaluated both individually and in combination with standard of care and investigational anticancer small molecules within a complex spheroid model of solid tumors. . Complex spheroids include a stromal component modeled by human endothelial cells (HUVEC) and fibroblasts modeled by human mesenchymal stem cells (MSCs). The concentration ranges selected for each drug and investigational agent were based upon clinically achievable concentrations if the clinical Cmax of the agent was known.
Compounds. The drugs and investigational agents: alrizomadlin (APG-115; NSC831270), pelcitoclax (APG-1252; NSC835773), dasminapant (APG-1387;NSC834197), TAK-243 (NSC785004), copanlisib (NSC809693), olaparib (NSC753686), talazoparib (NSC767125), cobimetinib (NSC 768068), eltanexor (KPT-8602, NSC 794443), abemaciclib (NSC 768073), sotorasib (NSC818433), adagrasib (NSC 831453), MRTX-1133 (NSC 836407), Iadademestat (ORY1001, NSC 806812), and RMC-4630 (NSC839698), were obtained from the NCI Developmental Therapeutics Program Chemical Repository. The FDA-approved anticancer drug set is available from the Developmental Therapeutics Program at https://dtp.cancer.gov/organization/dscb/obtaining/available plates.htm. […] The stock solutions were prepared in dimethyl sulfoxide (DMSO, Sigma-Aldrich, St. Louis, MO, cat. D2650) at 800-fold the tested concentration and stored at -70 degrees C prior to their use. All drugs and investigational agents were tested over a range starting from a high concentration at or near the clinical Cmax and decreasing in half-log increments. If the clinical Cmax for an agent had not been determined, the highest concentration tested was 10 microM.
The patient-derived cancer (PDC) cell lines include five colon adenocarcinomas: 186277-243-T-J2-PDC, 616215-338-R-J1-PDC, 439559-082-T-J2-PDC, 463943-066-T-J2-PDC, and 519858-162-T-J1-PDC; three pancreatic carcinomas: 323965-272-R-J2-PDC, 521955-158-R6-J3-PDC, and 521955-158-R2-J5-PDC; two uterine sarcomas: 327498-152-R-J2-PDC and 993429-296-R-J1-PDC; two rhabdomyosarcomas: 755483-174-R-J1-PDC and 772245-204-R-J1-PDC; two soft tissue sarcomas: 126254-015-R-J1-PDC and 494315-158-R-J1-PDC; two malignant fibrous histiocytomas: 317291-083-R-J1-PDC and 596521-263-R-J1-PDC; two breast carcinomas: 171881-019-R-J1-PDC and 885512-296-R-J2-PDC; and one ovarian carcinoma: 6556581-035-R-J-PDC were obtained from the NCI PDMR, (https://pdmr.cancer.gov). The established cell lines HSSY-2 synovial sarcoma (RRID:CVCL 8719), SYO-1 synovial sarcoma (RRID:CVCL_7146), MPNST malignant peripheral neural sheath tumor were obtained from the Sloan Kettering Institute. The following established cell lines were purchased from the American Type Culture Collection (ATCC, Manassas, VA), Sor the received from the NCI repository:, PANC-1 pancreatic carcinoma (CRL-1469, RRID:CVCL_0480), OVCAR-5 ovarian carcinoma (RRID:CVCL_1628), OVCAR-8 ovarian carcinoma (RRID:CVCL_1629), , MCF-7 breast carcinoma (CRL-12584, RRID:CVCL_0031), MDA-MB-231 breast carcinoma (CRL-12532, RRID:CVCL_0062), NCI-H1876 small cell lung carcinoma (CRL-5902, RRID:CVCL_1503), NCI-H510A small cell lung carcinoma (HTB-184, RRID:CVCL_1565), NCI-H1417 (CRL-5869, RRID:CVCL_1469), and NCI-H196 small cell lung carcinoma (CRL-5823, RRID:CVCL_1509). Dr. Peter Houghton (Greehey Children's Cancer Research Institute, University of Texas Health Science Center, San Antonio, TX) provided Rh-18 rhabdomyosarcoma (RRID:CVCL_1659). Pooled donor human umbilical vein endothelial cells (HUVEC, Lonza, cat. CC-2519) and human mesenchymal stem cells (hMSC, Lonza, cat. PT-2501) were purchased from Lonza (Walkersville, MD).
Cell Culture. […]

[1] = second compound 0.03 µM, first compound 0.0316 µM
[2] = second compound 0.03 µM, first compound 0.1 µM
[3] = second compound 0.0949 µM, first compound 0.0316 µM
[4] = second compound 0.0949 µM, first compound 0.1 µM
[5] = second compound 0.3 µM, first compound 0.0316 µM
[6] = second compound 0.3 µM, first compound 0.1 µM
[7] = second compound 0.949 µM, first compound 0.0316 µM
[8] = second compound 0.949 µM, first compound 0.1 µM
[9] = second compound 3 µM, first compound 0.0316 µM
[10] = second compound 3 µM, first compound 0.1 µM
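Also: spheroids exposed to agents for 7 days before viability read.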

In the case of `Cn1ncnc1[C@H]1c2n[nH]c(=O)c3cc(F)cc(c23)N[C@@H]1c1ccc(F)cc1` + CCN1C(C(=O)NC23CCC(C(=O)O)(CC2)CC3)C(c2cccc(Cl)c2F)C2(C(=O)Nc3cc(Cl)ccc32)C12CCCCC2, the IC50 (second compound 0.03 µM) is reported as over 0.1 µM, the IC50 (second compound 0.0949 µM) is reported as over 0.1 µM and the IC50 (second compound 0.3 µM) is reported as over 0.1 µM. The IC50 (second compound 0.949 µM) was over 0.1 µM, the IC50 (second compound 3 µM) was over 0.1 µM and the viability, T/C (second compound 0.03 µM, first compound 0.000316 µM) was 110%. For the same molecule, the viability, T/C (second compound 0.03 µM, first compound 0.001 µM) was 102%, the viability, T/C (second compound 0.03 µM, first compound 0.00316 µM) was 94.4% and the viability, T/C (second compound 0.03 µM, first compound 0.01 µM) was 87.7%. It also gave a viability, T/C [1] of 94.3%, a viability, T/C [2] of 95.2% and a viability, T/C (second compound 0.0949 µM, first compound 0.000316 µM) of 105%. It also gave a viability, T/C (second compound 0.0949 µM, first compound 0.001 µM) of 100%, a viability, T/C (second compound 0.0949 µM, first compound 0.00316 µM) of 116% and a viability, T/C (second compound 0.0949 µM, first compound 0.01 µM) of 96.1%. For the same molecule, the viability, T/C [3] was 94.9%, the viability, T/C [4] was 92.3% and the viability, T/C (second compound 0.3 µM, first compound 0.000316 µM) was 102%. The viability, T/C (second compound 0.3 µM, first compound 0.001 µM) was 130%, the viability, T/C (second compound 0.3 µM, first compound 0.00316 µM) was 97.2% and the viability, T/C (second compound 0.3 µM, first compound 0.01 µM) was 107%. The viability, T/C [5] was 87.1%, the viability, T/C [6] was 83.4% and the viability, T/C (second compound 0.949 µM, first compound 0.000316 µM) was 109%. The viability, T/C (second compound 0.949 µM, first compound 0.001 µM) was 93.8%, the viability, T/C (second compound 0.949 µM, first compound 0.00316 µM) was 102% and the viability, T/C (second compound 0.949 µM, first compound 0.01 µM) was 96.6%. It also gave a viability, T/C [7] of 90.6%, a viability, T/C [8] of 92.7% and a viability, T/C (second compound 3 µM, first compound 0.000316 µM) of 97%. For the same molecule, the viability, T/C (second compound 3 µM, first compound 0.001 µM) was 94.8%, the viability, T/C (second compound 3 µM, first compound 0.00316 µM) was 78.7% and the viability, T/C (second compound 3 µM, first compound 0.01 µM) was 87%. The viability, T/C [9] was 84% and the viability, T/C [10] was 86.8%.
With `O=C(c1cc(Cc2n[nH]c(=O)c3ccccc23)ccc1F)N1CCN(C(=O)C2CC2)CC1` + CCN1C(C(=O)NC23CCC(C(=O)O)(CC2)CC3)C(c2cccc(Cl)c2F)C2(C(=O)Nc3cc(Cl)ccc32)C12CCCCC2 the IC50 (second compound 0.03 µM) was over 10 µM, the IC50 (second compound 0.0949 µM) was over 10 µM and the IC50 (second compound 0.3 µM) was over 10 µM. For the same molecule, the IC50 (second compound 0.949 µM) was over 10 µM, the IC50 (second compound 3 µM) was over 10 µM and the viability, T/C [1] was 105%. It also gave a viability, T/C [2] of 98%, a viability, T/C (second compound 0.03 µM, first compound 0.316 µM) of 85.5% and a viability, T/C (second compound 0.03 µM, first compound 1 µM) of 89.9%. It also gave a viability, T/C (second compound 0.03 µM, first compound 3.16 µM) of 86.7%, a viability, T/C (second compound 0.03 µM, first compound 10 µM) of 70.6% and a viability, T/C [3] of 106%. It also gave a viability, T/C [4] of 96.2%, a viability, T/C (second compound 0.0949 µM, first compound 0.316 µM) of 94% and a viability, T/C (second compound 0.0949 µM, first compound 1 µM) of 93.7%. For the same molecule, the viability, T/C (second compound 0.0949 µM, first compound 3.16 µM) was 87.9%, the viability, T/C (second compound 0.0949 µM, first compound 10 µM) was 77% and the viability, T/C [5] was 104%. For the same molecule, the viability, T/C [6] was 97.2%, the viability, T/C (second compound 0.3 µM, first compound 0.316 µM) was 99.2% and the viability, T/C (second compound 0.3 µM, first compound 1 µM) was 97.1%. For the same molecule, the viability, T/C (second compound 0.3 µM, first compound 3.16 µM) was 73.3%, the viability, T/C (second compound 0.3 µM, first compound 10 µM) was 79.2% and the viability, T/C [7] was 89.9%. The viability, T/C [8] was 92.6%, the viability, T/C (second compound 0.949 µM, first compound 0.316 µM) was 103% and the viability, T/C (second compound 0.949 µM, first compound 1 µM) was 86.1%. For the same molecule, the viability, T/C (second compound 0.949 µM, first compound 3.16 µM) was 79.3%, the viability, T/C (second compound 0.949 µM, first compound 10 µM) was 83.6% and the viability, T/C [9] was 97.5%. For the same molecule, the viability, T/C [10] was 81.8%, the viability, T/C (second compound 3 µM, first compound 0.316 µM) was 87.5% and the viability, T/C (second compound 3 µM, first compound 1 µM) was 86.8%. The viability, T/C (second compound 3 µM, first compound 3.16 µM) was 84.8% and the viability, T/C (second compound 3 µM, first compound 10 µM) was 65.9%.
